We go through one compound from PMC8282722 (Current biology : CB, 2021).

This experiment concerns the target T1, GFP-Rab34 (LAP-Rab34) (Homo sapiens, UniProt Q9BZG1).
T1 sequence (Q9BZG1 1-259): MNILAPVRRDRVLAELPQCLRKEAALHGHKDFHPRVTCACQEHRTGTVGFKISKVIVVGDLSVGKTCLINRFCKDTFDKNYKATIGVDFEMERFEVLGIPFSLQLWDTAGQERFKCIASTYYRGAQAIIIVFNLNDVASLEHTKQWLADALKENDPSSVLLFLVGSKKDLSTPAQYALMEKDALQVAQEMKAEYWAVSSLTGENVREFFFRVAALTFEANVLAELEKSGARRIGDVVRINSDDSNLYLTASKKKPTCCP
In kind it is cell-based. Particulars: labelled compound; HEK293T cells; 10 mM MgCl2 in lysis buffer.

Regarding `Nc1nc2c(ncn2[C@@H]2O[C@H](COP(=O)(O)OP(=O)(O)O)[C@@H](O)[C@H]2O)c(=O)[nH]1` [GDP], the “32P metabolic labelling in cells, anti-GFP immunoprecipitation, TLC of bound nuc” value is on record as “wildtype Rab34 was mostly GDP-bound”.
